Experiments:
Type in all cases: functional
[1] = system: Candida parapsilosis; assay: Antifungal activity against Candida parapsilosis ATCC 22019 […] after 72 hrs by modified NCCLS M38-A method; settings: Lodderomyces parapsilosis, ATCC 22019, 72 h
[2] = system: Sporothrix schenckii; assay: Antifungal activity against Sporothrix schenckii PJRC002 isolate from cutaneous-lymphatic sporotrichosis patient after 72 hrs by Sensititre YeastOne method
[3] = system: Sporothrix schenckii; assay: Antifungal activity against Sporothrix schenckii P30915 isolate from cutaneous-lymphatic sporotrichosis patient after 72 hrs by ATB Fungus 2 method
[4] = system: Sporothrix schenckii; assay: Antifungal activity against Sporothrix schenckii P24223 isolate from cutaneous-lymphatic sporotrichosis patient after 72 hrs by Sensititre YeastOne method
[5] = system: Sporothrix schenckii; assay: Antifungal activity against Sporothrix schenckii P14954 isolate from cutaneous-lymphatic sporotrichosis patient after 72 hrs by modified NCCLS M38-A method
[6] = system: Sporothrix schenckii; assay: Antifungal activity against Sporothrix schenckii P3287 isolate from cutaneous-lymphatic sporotrichosis patient after 72 hrs by Sensititre YeastOne method
[7] = system: Sporothrix schenckii; assay: Antifungal activity against Sporothrix schenckii P25013 isolate from cutaneous-lymphatic sporotrichosis patient after 72 hrs by ATB Fungus 2 method
[8] = system: Sporothrix schenckii; assay: Antifungal activity against Sporothrix schenckii MRSS4 isolate from cutaneous-lymphatic sporotrichosis patient after 72 hrs by Sensititre YeastOne method
[9] = system: Sporothrix schenckii; assay: Antifungal activity against Sporothrix schenckii PSSA81 isolate from cutaneous-lymphatic sporotrichosis patient after 72 hrs by Sensititre YeastOne method
[10] = system: Sporothrix schenckii; assay: Antifungal activity against Sporothrix schenckii P26187 isolate from cutaneous-lymphatic sporotrichosis patient after 72 hrs by modified NCCLS M38-A method
[11] = system: Sporothrix schenckii; assay: Antifungal activity against Sporothrix schenckii SSA29 isolate from cutaneous-lymphatic sporotrichosis patient after 72 hrs by ATB Fungus 2 method
[12] = system: Sporothrix schenckii; assay: Antifungal activity against Sporothrix schenckii MRSS4 isolate from cutaneous-lymphatic sporotrichosis patient after 72 hrs by ATB Fungus 2 method
[13] = system: Sporothrix schenckii; assay: Antifungal activity against Sporothrix schenckii P30019 isolate from cutaneous-lymphatic sporotrichosis patient after 72 hrs by Sensititre YeastOne method
[14] = system: Sporothrix schenckii; assay: Antifungal activity against Sporothrix schenckii P30915 isolate from cutaneous-lymphatic sporotrichosis patient after 72 hrs by modified NCCLS M38-A method
[15] = system: Sporothrix schenckii; assay: Antifungal activity against Sporothrix schenckii P26187 isolate from cutaneous-lymphatic sporotrichosis patient after 72 hrs by ATB Fungus 2 method
[16] = system: Pichia kudriavzevii; assay: Antifungal activity against Candida krusei ATCC 6258 […] after 72 hrs by Sensititre YeastOne method; settings: ATCC 6258, 72 h
[17] = system: Sporothrix schenckii; assay: Antifungal activity against Sporothrix schenckii PSCC1 isolate from cutaneous-lymphatic sporotrichosis patient after 72 hrs by modified NCCLS M38-A method
[18] = system: Sporothrix schenckii; assay: Antifungal activity against Sporothrix schenckii P14036 isolate from cutaneous-lymphatic sporotrichosis patient after 72 hrs by Sensititre YeastOne method
[19] = system: Sporothrix schenckii; assay: Antifungal activity against Sporothrix schenckii P14954 isolate from cutaneous-lymphatic sporotrichosis patient after 72 hrs by Sensititre YeastOne method
[20] = system: Sporothrix schenckii; assay: Antifungal activity against Sporothrix schenckii P10012 isolate from cutaneous-lymphatic sporotrichosis patient after 72 hrs by Sensititre YeastOne method
[21] = system: Sporothrix schenckii; assay: Antifungal activity against Sporothrix schenckii P14036 isolate from cutaneous-lymphatic sporotrichosis patient after 72 hrs by modified NCCLS M38-A method
[22] = system: Sporothrix schenckii; assay: Antifungal activity against Sporothrix schenckii P24223 isolate from cutaneous-lymphatic sporotrichosis patient after 72 hrs by ATB Fungus 2 method
[23] = system: Sporothrix schenckii; assay: Antifungal activity against Sporothrix schenckii PJRC002 isolate from cutaneous-lymphatic sporotrichosis patient after 72 hrs by ATB Fungus 2 method
[24] = system: Sporothrix schenckii; assay: Antifungal activity against Sporothrix schenckii P0019 isolate from cutaneous-lymphatic sporotrichosis patient after 72 hrs by modified NCCLS M38-A method
[25] = system: Sporothrix schenckii; assay: Antifungal activity against Sporothrix schenckii P20825 isolate from cutaneous-lymphatic sporotrichosis patient after 72 hrs by Sensititre YeastOne method
[26] = system: Sporothrix schenckii; assay: Antifungal activity against Sporothrix schenckii P3287 isolate from cutaneous-lymphatic sporotrichosis patient after 72 hrs by modified NCCLS M38-A method
[27] = system: Sporothrix schenckii; assay: Antifungal activity against Sporothrix schenckii PGAC0016 isolate from cutaneous-lymphatic sporotrichosis patient after 72 hrs by ATB Fungus 2 method
[28] = system: Sporothrix schenckii; assay: Antifungal activity against Sporothrix schenckii P24255 isolate from cutaneous-lymphatic sporotrichosis patient after 72 hrs by Sensititre YeastOne method
[29] = system: Sporothrix schenckii; assay: Antifungal activity against Sporothrix schenckii P14954 isolate from cutaneous-lymphatic sporotrichosis patient after 72 hrs by ATB Fungus 2 method
[30] = system: Sporothrix schenckii; assay: Antifungal activity against Sporothrix schenckii P30915 isolate from cutaneous-lymphatic sporotrichosis patient after 72 hrs by Sensititre YeastOne method
[31] = system: Sporothrix schenckii; assay: Antifungal activity against Sporothrix schenckii P25013 isolate from cutaneous-lymphatic sporotrichosis patient after 72 hrs by modified NCCLS M38-A method
[32] = system: Sporothrix schenckii; assay: Antifungal activity against Sporothrix schenckii P1621 isolate from cutaneous-lymphatic sporotrichosis patient after 72 hrs by modified NCCLS M38-A method
[33] = system: Sporothrix schenckii; assay: Antifungal activity against Sporothrix schenckii MRSS4 isolate from cutaneous-lymphatic sporotrichosis patient after 72 hrs by modified NCCLS M38-A method
[34] = system: Sporothrix schenckii; assay: Antifungal activity against Sporothrix schenckii P25013 isolate from cutaneous-lymphatic sporotrichosis patient after 72 hrs by Sensititre YeastOne method
[35] = system: Sporothrix schenckii; assay: Antifungal activity against Sporothrix schenckii P24255 isolate from cutaneous-lymphatic sporotrichosis patient after 72 hrs by ATB Fungus 2 method
[36] = system: Sporothrix schenckii; assay: Antifungal activity against Sporothrix schenckii isolate from cutaneous-lymphatic sporotrichosis patient after 72 hrs by modified NCCLS M38-A method
[37] = system: Sporothrix schenckii; assay: Antifungal activity against Sporothrix schenckii PSSA81 isolate from cutaneous-lymphatic sporotrichosis patient after 72 hrs by modified NCCLS M38-A method
[38] = system: Sporothrix schenckii; assay: Antifungal activity against Sporothrix schenckii PSCC1 isolate from cutaneous-lymphatic sporotrichosis patient after 72 hrs by ATB Fungus 2 method
[39] = system: Sporothrix schenckii; assay: Antifungal activity against Sporothrix schenckii P24223 isolate from cutaneous-lymphatic sporotrichosis patient after 72 hrs by modified NCCLS M38-A method
[40] = system: Sporothrix schenckii; assay: Antifungal activity against Sporothrix schenckii P3287 isolate from cutaneous-lymphatic sporotrichosis patient after 72 hrs by ATB Fungus 2 method
[41] = system: Sporothrix schenckii; assay: Antifungal activity against Sporothrix schenckii P30019 isolate from cutaneous-lymphatic sporotrichosis patient after 72 hrs by ATB Fungus 2 method
[42] = system: Sporothrix schenckii; assay: Antifungal activity against Sporothrix schenckii PGAC0016 isolate from cutaneous-lymphatic sporotrichosis patient after 72 hrs by modified NCCLS M38-A method
[43] = system: Sporothrix schenckii; assay: Antifungal activity against Sporothrix schenckii P1621 isolate from cutaneous-lymphatic sporotrichosis patient after 72 hrs by Sensititre YeastOne method
[44] = system: Sporothrix schenckii; assay: Antifungal activity against Sporothrix schenckii P1621 isolate from cutaneous-lymphatic sporotrichosis patient after 72 hrs by ATB Fungus 2 method
[45] = system: Sporothrix schenckii; assay: Antifungal activity against Sporothrix schenckii isolate from cutaneous-lymphatic sporotrichosis patient after 72 hrs by ATB Fungus 2 method

C[C@@H]1[C@H](O)[C@@H](C)/C=C/C=C/C=C/C=C/C=C/C=C/C=C/[C@H](O[C@@H]2O[C@H](C)[C@@H](O)[C@H](N)[C@@H]2O)C[C@@H]2O[C@](O)(C[C@@H](O)C[C@@H](O)[C@H](O)CC[C@@H](O)C[C@@H](O)CC(=O)O[C@H]1C)C[C@H](O)[C@H]2C(=O)O [AMPHOTERICIN B]
2 µg/mL: MIC [11] | MIC [35]
0.06 µg/mL: MIC [9] | MIC [33]
0.125 µg/mL: MIC [24] | MIC [32]
> 116 µg/mL: MIC90 [36]
0.5 µg/mL: MIC [1] | MIC [4] | MIC [6] | MIC [8] | MIC [16] | MIC [18] | MIC [28] | MIC [30] | MIC [39] | MIC [43]
4 µg/mL: MIC [12] | MIC [15] | MIC90 [45]
8 µg/mL: MIC [40]
> 16 µg/mL: MIC [10] | MIC [21] | MIC [26] | MIC [31]
1 µg/mL: MIC [2] | MIC [7] | MIC [13] | MIC [19] | MIC [23] | MIC [25] | MIC [34] | MIC50 [36] | MIC [37] | MIC [41] | MIC50 [45]
0.25 µg/mL: MIC [5] | MIC [14] | MIC [17] | MIC [20] | MIC [42]
≤ 0.5 µg/mL: MIC [3] | MIC [22] | MIC [27] | MIC [29] | MIC [38] | MIC [44]

CCC(C)n1ncn(-c2ccc(N3CCN(c4ccc(OCC5COC(Cn6cncn6)(c6ccc(Cl)cc6Cl)O5)cc4)CC3)cc2)c1=O (centres undefined) [ITRACONAZOLE]
0.25 µg/mL: MIC [6] | MIC [8] | MIC [13] | MIC [17] | MIC [18] | MIC [19] | MIC [20] | MIC [24] | MIC [26] | MIC [28] | MIC [34] | MIC [43]
0.5 µg/mL: MIC [1] | MIC [4] | MIC [5] | MIC [10] | MIC [11] | MIC [14] | MIC [21] | MIC [30] | MIC [31] | MIC [33] | MIC50 [36] | MIC90 [36] | MIC [37] | MIC [42]
1 µg/mL: MIC [7] | MIC [16] | MIC [23] | MIC [32] | MIC [35] | MIC [38] | MIC [41] | MIC50 [45]
2 µg/mL: MIC [3] | MIC [12] | MIC [15] | MIC [22] | MIC [27] | MIC [40] | MIC [44] | MIC90 [45]
0.06 µg/mL: MIC [9]
8 µg/mL: MIC [39]
0.13 µg/mL: MIC [2] | MIC [25]
4 µg/mL: MIC [29]
